According to patent US20140357579A1, “SYNTHETIC PEPTIDE AMIDES AND DIMERS THEREOF” (priority 2006, published 2014):

Experiments:
[1] = target: CYP3A4 (Homo sapiens, UniProt P08684); test: Recombinant human cytochrome P450 CYP3A4 inhibition (Cerep); conditions: 10 uM test compound, percent remaining CYP activity
[2] = target: CYP2C9 (Homo sapiens, UniProt P11712); test: Cytochrome P450 CYP2C9 inhibition, human liver microsomes (Cerep); conditions: 10 uM test compound, percent remaining CYP activity
Sequence of CYP2C9 (P11712 whole entry): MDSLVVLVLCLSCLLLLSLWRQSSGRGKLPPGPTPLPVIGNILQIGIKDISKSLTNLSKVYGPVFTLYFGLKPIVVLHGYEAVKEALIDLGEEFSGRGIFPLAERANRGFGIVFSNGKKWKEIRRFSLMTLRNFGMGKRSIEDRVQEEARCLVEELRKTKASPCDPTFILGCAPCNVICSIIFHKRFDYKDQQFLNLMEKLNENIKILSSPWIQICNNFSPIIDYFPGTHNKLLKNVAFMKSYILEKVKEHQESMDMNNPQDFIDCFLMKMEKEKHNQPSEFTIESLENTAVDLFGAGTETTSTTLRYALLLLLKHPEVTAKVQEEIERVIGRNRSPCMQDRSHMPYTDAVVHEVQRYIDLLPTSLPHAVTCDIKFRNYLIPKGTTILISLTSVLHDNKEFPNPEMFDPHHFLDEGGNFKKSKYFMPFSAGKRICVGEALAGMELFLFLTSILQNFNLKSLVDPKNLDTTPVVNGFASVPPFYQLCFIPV

[3] = target: CYP2C19 (Homo sapiens, UniProt P33261); test: Cytochrome P450 CYP2C19 inhibition, human liver microsomes (Cerep); conditions: 10 uM test compound, percent remaining CYP activity
Sequence of CYP2C19 (P33261 whole entry): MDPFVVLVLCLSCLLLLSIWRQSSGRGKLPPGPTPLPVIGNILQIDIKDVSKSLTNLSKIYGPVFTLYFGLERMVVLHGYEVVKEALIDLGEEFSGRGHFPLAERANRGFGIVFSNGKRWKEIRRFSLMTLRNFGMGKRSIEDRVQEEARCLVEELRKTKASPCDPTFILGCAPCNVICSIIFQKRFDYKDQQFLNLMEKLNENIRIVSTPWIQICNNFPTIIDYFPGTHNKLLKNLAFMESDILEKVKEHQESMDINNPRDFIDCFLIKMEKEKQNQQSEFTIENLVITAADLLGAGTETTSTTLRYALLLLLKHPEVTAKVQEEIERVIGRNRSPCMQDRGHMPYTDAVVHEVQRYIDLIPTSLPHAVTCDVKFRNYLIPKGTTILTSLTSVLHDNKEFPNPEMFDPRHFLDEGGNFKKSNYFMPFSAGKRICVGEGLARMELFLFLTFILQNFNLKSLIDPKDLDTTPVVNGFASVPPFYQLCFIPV

[4] = test system: CYP1A; test: Cytochrome P450 CYP1A inhibition, human liver microsomes (Cerep); conditions: 10 uM test compound, percent remaining CYP activity
[5] = target: CYP2D6 (Homo sapiens, UniProt P10635); test: Cytochrome P450 CYP2D6 inhibition, human liver microsomes (Cerep); conditions: 10 uM test compound, percent remaining CYP activity
Sequence of CYP2D6 (P10635 whole entry): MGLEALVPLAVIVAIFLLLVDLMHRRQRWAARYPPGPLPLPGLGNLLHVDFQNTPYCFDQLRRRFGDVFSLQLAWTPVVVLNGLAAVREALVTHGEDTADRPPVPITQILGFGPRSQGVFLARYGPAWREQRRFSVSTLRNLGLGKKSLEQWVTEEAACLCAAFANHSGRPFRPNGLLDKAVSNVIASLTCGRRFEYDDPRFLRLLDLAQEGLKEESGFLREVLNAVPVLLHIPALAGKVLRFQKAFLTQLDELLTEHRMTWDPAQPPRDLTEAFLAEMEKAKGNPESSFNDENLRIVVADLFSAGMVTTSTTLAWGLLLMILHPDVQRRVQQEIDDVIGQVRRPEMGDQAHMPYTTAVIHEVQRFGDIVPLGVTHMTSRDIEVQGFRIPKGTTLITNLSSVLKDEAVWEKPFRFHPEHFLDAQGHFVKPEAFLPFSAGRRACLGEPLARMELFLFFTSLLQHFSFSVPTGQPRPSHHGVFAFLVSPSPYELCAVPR

[6] = target: T1, mouse kappa opioid receptor (mKOR) (Mus musculus, UniProt P33534); test: Inhibition of forskolin-stimulated cAMP production in R1.G1 cells (TR-FRET cAMP immunoassay); format: cell-based; conditions: R1.G1 cells
T1 construct: a mouse thymoma cell line that expresses only the kappa-opioid receptor and no other opioid receptor subtype; host or cells: R1.G1 mouse thymoma cells
T1 sequence (P33534 whole entry): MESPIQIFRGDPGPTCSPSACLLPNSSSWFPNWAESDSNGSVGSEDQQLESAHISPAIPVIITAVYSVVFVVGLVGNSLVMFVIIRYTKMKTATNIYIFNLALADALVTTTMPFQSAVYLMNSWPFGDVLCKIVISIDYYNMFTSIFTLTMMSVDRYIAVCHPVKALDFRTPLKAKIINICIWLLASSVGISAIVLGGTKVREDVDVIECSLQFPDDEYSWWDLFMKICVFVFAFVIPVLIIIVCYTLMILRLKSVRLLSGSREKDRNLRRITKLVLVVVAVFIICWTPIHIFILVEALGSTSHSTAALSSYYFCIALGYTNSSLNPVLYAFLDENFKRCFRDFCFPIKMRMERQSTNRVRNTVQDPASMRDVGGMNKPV

[7] = target: T2, human kappa opioid receptor (hKOR) (Homo sapiens, UniProt P41145); test: NFAT-luciferase reporter assay in HEK-293 cells transfected with human kappa opioid receptor and chimeric G-protein; format: cell-based
T2 construct: expressed in transfected cells; host or cells: HEK-293 cells (ATCC), transient transfection with pcDNA3-hOPRK1
T2 sequence (P41145 whole entry): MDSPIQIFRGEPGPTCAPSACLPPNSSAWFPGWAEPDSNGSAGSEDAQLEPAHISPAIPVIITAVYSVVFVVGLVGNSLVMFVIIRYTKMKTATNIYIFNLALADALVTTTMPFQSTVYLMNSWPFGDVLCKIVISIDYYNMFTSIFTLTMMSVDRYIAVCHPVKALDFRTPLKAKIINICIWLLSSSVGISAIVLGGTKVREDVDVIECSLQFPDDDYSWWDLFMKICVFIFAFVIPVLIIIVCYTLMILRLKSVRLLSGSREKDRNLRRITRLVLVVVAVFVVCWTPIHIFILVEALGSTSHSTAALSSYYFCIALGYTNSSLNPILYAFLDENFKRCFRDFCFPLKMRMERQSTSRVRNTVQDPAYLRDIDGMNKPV

[8] = test system: mice; test: Inhibition of locomotion in mice (sedation); conditions: delivered subcutaneously
[9] = test system: mice; test: Acetic acid-induced writhing assay in mice; format: in vivo; conditions: IRC mice, delivered subcutaneously

Sequence of CYP3A4 (P08684 whole entry): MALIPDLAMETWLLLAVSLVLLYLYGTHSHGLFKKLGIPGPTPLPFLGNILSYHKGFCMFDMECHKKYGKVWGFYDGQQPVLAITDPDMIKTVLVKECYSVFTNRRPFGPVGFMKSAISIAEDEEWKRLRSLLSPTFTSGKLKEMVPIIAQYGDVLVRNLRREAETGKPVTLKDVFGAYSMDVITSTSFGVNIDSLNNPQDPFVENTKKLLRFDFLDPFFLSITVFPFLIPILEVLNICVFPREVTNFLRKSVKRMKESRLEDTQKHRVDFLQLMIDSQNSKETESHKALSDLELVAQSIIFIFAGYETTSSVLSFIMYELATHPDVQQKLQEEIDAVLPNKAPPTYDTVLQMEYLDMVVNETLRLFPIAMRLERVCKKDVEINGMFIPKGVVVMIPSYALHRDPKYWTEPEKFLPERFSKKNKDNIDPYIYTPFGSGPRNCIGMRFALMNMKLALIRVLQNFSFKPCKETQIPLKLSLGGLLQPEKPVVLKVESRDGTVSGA

CC(C)C[C@@H](NC(=O)[C@@H](Cc1ccccc1)NC(=O)[C@H](N)Cc1ccccc1)C(=O)N[C@H](CCCN)C(=O)N1CCCN(C2=NCCN2)CC1 [Compound 17, D-Phe-D-Phe-D-Leu-D-Orn-[4-(4,5-dihydro-1H-imidazol-2-yl)homopiperazine amide]]
Percent Activity of CYP3A4 ([1]; Expt 1): 94.7%
Percent Activity of CYP3A4 ([1]; Expt 2): 95.9%
Percent Activity of CYP2C9 ([2]; Expt 1): 99.2%
Percent Activity of CYP2C9 ([2]; Expt 2): 98.2%
Percent Activity of CYP2C19 ([3]; Expt 1): 94.1%
Percent Activity of CYP2C19 ([3]; Expt 2): 97.8%
Percent Activity of CYP1A ([4]; Expt 1): 97.1%
Percent Activity of CYP1A ([4]; Expt 2): 95.8%
Percent Activity of CYP2D6 ([5]; Expt 1): 98.4%
Percent Activity of CYP2D6 ([5]; Expt 2): 98.2%
mKOR Efficacy(%) [6]: 99%
hKOR Efficacy(%) ([7]; percent maximal activation compared to full induction by known kappa agonists): 90%
EC50 ([7]; transfected HEK-293 cells, luciferase reporter, read-out: hKOR EC50): 0.12 nM
ED50 in the inhibition of locomotion assay [8]: 3.172 mg/kg
ED50 in the acetic acid-induced writhing assay [9]: 0.074 mg/kg
